Patent US20060211698A1, “Bicyclic heteroaryl derivatives for treating viruses” (Genelabs, Inc., priority 2005, published 2006)

Target: T1, HCV-NS5b (Hepatitis C virus genotype 1b, UniProt Q9WMX2)
T1 construct: The cloned fragment was missing the C terminus 21 amino acid residues; (His)6 (C); made in house; host or cells: XL-1 cells (E. coli)
Assay: HCV-NS5b Enzyme Assay
Format: biochemical
Conditions: 1 μM test compound; incorporation of [3H]-UTP, 37° C., 2 hours
Method in brief: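 The NS5B construct lacks its C-terminal 21 residues, carries a C-terminal His6 tag and was expressed in E. coli. [^3H]-UTP incorporation on a biotinylated HCV heteropolymeric template (10 ng/μL) with 10 μM each NTP, pH 7.5, 5 mM MgCl2 and 5% DMSO ran 2 h at 37° C and was read by SPA scintillation. IC50s came from 10-point 2-fold series starting at 50 or 2 μM.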

Row | Compound | inhibition at 1 µM | % inhibition @ 1 μM
1 | Cc1ccc(-c2ccc3cc(-c4c(C5CCCCC5)c5ccc(C(=O)O)cc5n4CC(=O)N4CCOCC4)ccc3n2)s1 [Compound 235, 3-Cyclohexyl-2-[2-(5-methyl-thiophen-2-yl)-quinolin-6-yl]-1-(2-morpholin-4-yl-2-oxo-ethyl)-1H-indole-6-carboxylic acid] | 95.5% | 
2 | O=C(O)c1ccc2c(C3CCCCC3)c(-c3ccc4nc(-c5cccnc5)ccc4c3)n(CC(=O)N3CCOCC3)c2c1 [Compound 226, 1-[N-morpholinocarbonylmethyl]-2-[2-pyrid-3-ylquinolin-6-yl]-3-cyclohexyl-1H-indole-6-carboxylic acid] |  | 94.5%
3 | Cc1nc(C(F)(F)F)sc1-c1ccc2cc(-c3c(C4CCCCC4)c4ccc(C(=O)O)cc4n3CC(=O)N3CCOCC3)ccc2n1 [Compound 248, 3-Cyclohexyl-2-[2-(4-methyl-2-trifluoromethyl-thiazol-5-yl)-quinolin-6-yl]-1-(2-morpholin-4-yl-2-oxo-ethyl)-1H-indole-6-carboxylic acid] | 95.2% | 
4 | Cc1ccc(-c2ccc(-c3c(C4CCCCC4)c4ccc(C(=O)O)cc4n3CC(=O)N3CCOCC3)cc2)s1 [Compound 316, 3-Cyclohexyl-2-[4-(5-methyl-thiophen-2-yl)-phenyl]-1-(2-morpholin-4-yl-2-oxo-ethyl)-1H-indole-6-carboxylic acid] | 101% | 
5 | O=C(O)c1ccc2c(C3CCCCC3)c(-c3ccc4nc(-c5nccs5)ccc4c3)n(CC(=O)N3CCOCC3)c2c1 [Compound 227, 1-[N-morpholinocarbonylmethyl]-2-[2-thiazol-2-ylquinolin-6-yl]-3-cyclohexyl-1H-indole-6-carboxylic acid] |  | 98.4%
6 | O=C(O)c1ccc2c(C3CCCCC3)c(-c3ccc4nc(-c5ccc(F)cc5)ccc4c3)n(CC(=O)N3CCOCC3)c2c1 [Compound 265, 3-Cyclohexyl-2-[2-(4-fluoro-phenyl)-quinolin-6-yl]-1-(2-morpholin-4-yl-2-oxo-ethyl)-1H-indole-6-carboxylic acid] | 96.3% | 
7 | COC(=O)c1ccc2c(C3CCCCC3)c(-c3ccc4nc(-c5cc(OC)ccc5-c5ccc(Cl)cc5)ccc4c3)n(CC(=O)O)c2c1 [Compound 201, 1-carboxymethyl-2-[2-(4′-chloro-4-methoxy-biphenyl-2-yl)-quinolin-6-yl]-3-cyclohexyl-1H-indole-6-carboxylic acid methyl ester] | 77.7% | 
8 | Cc1ccccc1-c1ccc2cc(-c3c(C4CCCCC4)c4ccc(C(=O)O)cc4n3CC(=O)N3CCOCC3)ccc2n1 [Compound 232, 3-Cyclohexyl-1-(2-morpholin-4-yl-2-oxo-ethyl)-2-(2-o-tolyl-quinolin-6-yl)-1H-indole-6-carboxylic acid] | 97.5% | 
9 | O=C(O)c1ccc2c(C3CCCCC3)c(-c3ccc4nc(-c5ccc(F)c(F)c5)ccc4c3)n(CC(=O)N3CCOCC3)c2c1 [Compound 266, 3-Cyclohexyl-2-[2-(3,4-difluoro-phenyl)-quinolin-6-yl]-1-(2-morpholin-4-yl-2-oxo-ethyl)-1H-indole-6-carboxylic acid] | 97.1% | 
10 | Cc1nc(C)c(-c2ccc3cc(-c4c(C5CCCCC5)c5ccc(C(=O)O)c(C)c5n4CC(=O)N4CCOCC4)ccc3n2)s1 [Compound 238, 3-Cyclohexyl-2-[2-(2,4-dimethyl-thiazol-5-yl)-quinolin-6-yl]-7-methyl-1-(2-oxo-2-morpholino-4-yl-ethyl)-1H-indole-6-carboxylic acid] | 85.6% | 
11 | COc1ccc(-c2ccc(Cl)cc2)c(-c2ccc3cc(-c4[nH]c5cc(C(=O)O)ccc5c4C4CCCCC4)ccc3n2)c1 [Compound 200, 2-[2-(4′-chloro-4-methoxy-biphenyl-2-yl)-quinolin-6-yl]-3-cyclohexyl-1H-indole-6-carboxylic acid] | 96.2% | 
12 | Cc1ccnc(-c2ccc3cc(-c4c(C5CCCCC5)c5ccc(C(=O)O)cc5n4CC(=O)N4CCOCC4)ccc3n2)c1 [Compound 249, 3-Cyclohexyl-2-[2-(4-methyl-pyridin-2-yl)-quinolin-6-yl]-1-(2-morpholin-4-yl-2-oxo-ethyl)-1H-indole-6-carboxylic acid] | 99.5% | 
13 | COc1ncccc1-c1ccc(-c2c(C3CCCCC3)c3ccc(C(=O)O)cc3n2CC(=O)N2CCOCC2)cc1 [Compound 304, 3-Cyclohexyl-2-[4-(2-methoxy-pyridin-3-yl)-phenyl]-1-(2-morpholin-4-yl-2-oxo-ethyl)-1H-indole-6-carboxylic acid] | 98.5% | 
14 | COc1ccc(-c2ccc(Cl)cc2)c(-c2ccc3cc(-c4c(C5CCCCC5)c5ccc(C(=O)O)cc5n4CC(=O)N4CCOCC4)ccc3n2)c1 [Compound 203, 1-[N-morpholinocarbonylmethyl]-2-[2-(4′-chloro-4-methoxy-biphen-2-yl)-quinolin-6-yl]-3-cyclohexyl-1H-indole-6-carboxylic acid] | 98.7% | 
15 | Cc1nc(C)c(-c2nc3ccc(-c4cc5ccc(C(=O)O)cc5n4CC(=O)N4CCCCC4)cc3cc2C2CCCCC2)s1 [Compound 216, 1-(2-oxo-2-piperidin-1-yl-ethyl)-2-[2-(2,4-dimethylthiazol-5-yl)-3-cyclohexylquinolin-6-yl]-1H-indole-6-carboxylic acid] | 98.8% | 
16 | O=C(O)c1ccc2c(C3CCCCC3)c(-c3ccc4nc(-c5ccccc5)cnc4c3)n(CC(=O)N3CCOCC3)c2c1 [Compound 330, 3-Cyclohexyl-1-(2-morpholin-4-yl-2-oxo-ethyl)-2-(2-phenyl-quinoxalin-6-yl)-1H-indole-6-carboxylic acid] | 96.8% | 
17 | Cc1nc(C)c(-c2ccc3cc(-c4c(C5CCCCC5)c5ccc(C(=O)O)cc5n4CC(=O)N4C(C)COCC4C)ccc3n2)s1 (stereo not drawn) [Compound 279, 3-Cyclohexyl-1-[2-(3,5-dimethyl-morpholin-4-yl)-2-oxo-ethyl]-2-[2-(2,4-dimethyl-thiazol-5-yl)-quinolin-6-yl]-1H-indole-6-carboxylic acid] | 100% | 
18 | Cc1cc(Cn2c(-c3ccc4nc(-c5sc(C)nc5C)ccc4c3)c(C3CCCCC3)c3ccc(C(=O)O)cc32)no1 [Compound 291, 3-Cyclohexyl-2-[2-(2,4-dimethyl-thiazol-5-yl)-quinolin-6-yl]-1-(5-methyl-isoxazol-3-ylmethyl)-1H-indole-6-carboxylic acid] | 96.4% | 
19 | O=C(O)c1ccc2c(C3CCCCC3)c(-c3ccc4nc(-c5c(F)cccc5F)ccc4c3)n(CC(=O)N3CCOCC3)c2c1 [Compound 259, 3-Cyclohexyl-2-[2-(2,6-difluoro-phenyl)-quinolin-6-yl]-1-(2-morpholin-4-yl-2-oxo-ethyl)-1H-indole-6-carboxylic acid] | 95.8% | 
20 | COc1ccc(-c2ccc(Cl)cc2)c(-c2ccc3cc(-c4c(C5CCCCC5)c5ccc(C(=O)O)cc5n4CC(=O)N4CCC(N5CCCC5)CC4)ccc3n2)c1 [Compound 205, 1-[(4-pyrrolidin-1-yl-piperidin-1-yl)carbonylmethyl]-2-[2-(4′-chloro-4-methoxy-biphen-2-yl)-quinolin-6-yl]-3-cyclohexyl-1H-indole-6-carboxylic acid] | 97% | 
21 | O=C(O)c1ccc2c(C3CCCCC3)c(-c3ccc(-c4ccc5ccccc5n4)cc3)n(CC(=O)N3CCOCC3)c2c1 [Compound 326, 3-Cyclohexyl-1-(2-morpholin-4-yl-2-oxo-ethyl)-2-(4-quinolin-2-yl-phenyl)-1H-indole-6-carboxylic acid] | 99.8% | 
